According to ChEMBL document CHEMBL1201862, “PubChem BioAssay data set” (2004):
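Grown in 96-well plates, cells were treated for 48 hours with each compound at five concentrations. Insufficient inhibition: endpoint recorded as highest concentration tested. Abbreviation: GI50, concentration required for 50% inhibition of growth.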 Activity calls are given as the source filed them. Cut-off read from the data, not from the text of the source: active = GI50 up to about 1.1 µM and inactive = higher.

Tests used:
Assay in all cases: NCI tumour cell line growth inhibition, 48 h
SNB-75 = tested on: SNB-75
OVCAR-4 = tested on: OVCAR-4
NCI-H23 = tested on: NCI-H23
OVCAR-3 = tested on: OVCAR-3
SNB-19 = tested on: SNB-19
HCC 2998 = tested on: HCC 2998
XF498 = tested on: XF498
SK-MEL-28 = tested on: SK-MEL-28
SK-MEL-2 = tested on: SK-MEL-2
HOP-92 = tested on: HOP-92
COLO 205 = tested on: COLO 205
SNB-78 = tested on: SNB-78
ACHN = tested on: ACHN
TK-10 = tested on: TK-10
KM-20L2 = tested on: KM-20L2
A549 = tested on: A549
K562 = tested on: K562
IGROV-1 = tested on: IGROV-1
U-251 = tested on: U-251
UACC-62 = tested on: UACC-62
MOLT-4 = tested on: MOLT-4
NCI-H460 = tested on: NCI-H460
786-0 = tested on: 786-0
NCI-H226 = tested on: NCI-H226
HL-60 = tested on: HL-60
DMS-273 = tested on: DMS-273
UACC-257 = tested on: UACC-257
SW-620 = tested on: SW-620
M14 = tested on: M14
SF-268 = tested on: SF-268
SN12C = tested on: SN12C
EKVX = tested on: EKVX
KM12 = tested on: KM12
CAKI-1 = tested on: CAKI-1
HCT-15 = tested on: HCT-15
HCT-116 = tested on: HCT-116
SR = tested on: SR
OVCAR-8 = tested on: OVCAR-8
HOP-18 = tested on: HOP-18
SK-MEL-5 = tested on: SK-MEL-5
A498 = tested on: A498
NCI-H522 = tested on: NCI-H522
HT-29 = tested on: HT-29
RXF 393 = tested on: RXF 393
CCRF-CEM = tested on: CCRF-CEM
UO-31 = tested on: UO-31
LXFL 529 = tested on: LXFL 529
M19-MEL = tested on: M19-MEL
DMS-114 = tested on: DMS-114
Malme-3M = tested on: Malme-3M
SF-539 = tested on: SF-539
OVCAR-5 = tested on: OVCAR-5
MCF7 = tested on: MCF7
RPMI-8226 = tested on: RPMI-8226
HOP-62 = tested on: HOP-62
SF-295 = tested on: SF-295
DLD-1 = tested on: DLD-1
SK-OV-3 = tested on: SK-OV-3
LOX IMVI = tested on: LOX IMVI
NCI/ADR-RES = tested on: NCI/ADR-RES

`Cc1cc(OCC(O)CO)ccc1-c1ccccc1` (stereo not drawn) was tested, and the GI50 (SNB-75) was > 100 µM (inactive), the GI50 (OVCAR-4) was > 100 µM (inactive) and the GI50 (NCI-H23) was > 100 µM (inactive). For the same compound, the GI50 (OVCAR-3) was > 100 µM (inactive), the GI50 (SNB-19) was > 100 µM (inactive) and the GI50 (HCC 2998) was > 100 µM (inactive). The GI50 (XF498) was 37.1 µM (inactive), the GI50 (SK-MEL-28) was > 100 µM (inactive) and the GI50 (SK-MEL-2) was > 100 µM (inactive). For the same compound, the GI50 (HOP-92) was 92.5 µM (inactive), the GI50 (COLO 205) was 61 µM (inactive) and the GI50 (SNB-78) was > 100 µM (inactive). For the same compound, the GI50 (ACHN) was > 100 µM (inactive), the GI50 (TK-10) was > 100 µM (inactive) and the GI50 (KM-20L2) was > 100 µM (inactive). For the same compound, the GI50 (A549) was > 100 µM (inactive), the GI50 (K562) was > 100 µM (inactive) and the GI50 (IGROV-1) was > 100 µM (inactive). The GI50 (U-251) was 54.3 µM (inactive), the GI50 (UACC-62) was > 100 µM (inactive) and the GI50 (MOLT-4) was > 100 µM (inactive). For the same compound, the GI50 (NCI-H460) was > 100 µM (inactive), the GI50 (786-0) was > 100 µM (inactive) and the GI50 (NCI-H226) was > 100 µM (inactive). The GI50 (HL-60) was 61.1 µM (inactive), the GI50 (DMS-273) was > 100 µM (inactive) and the GI50 (UACC-257) was 52.5 µM (inactive). The GI50 (SW-620) was 6.65 µM (inactive), the GI50 (M14) was > 100 µM (inactive) and the GI50 (SF-268) was > 100 µM (inactive). For the same compound, the GI50 (SN12C) was > 100 µM (inactive), the GI50 (EKVX) was 80.2 µM (inactive) and the GI50 (KM12) was > 100 µM (inactive). For the same compound, the GI50 (CAKI-1) was > 100 µM (inactive), the GI50 (HCT-15) was 37.2 µM and the GI50 (HCT-116) was 77.3 µM (inactive). The GI50 (SR) was > 100 µM (inactive), the GI50 (OVCAR-8) was > 100 µM (inactive) and the GI50 (HOP-18) was > 100 µM (inactive). For the same compound, the GI50 (SK-MEL-5) was > 100 µM (inactive), the GI50 (A498) was 11.4 µM (inactive) and the GI50 (NCI-H522) was > 100 µM (inactive). For the same compound, the GI50 (HT-29) was 70.1 µM (inactive), the GI50 (RXF 393) was 21.2 µM (inactive) and the GI50 (CCRF-CEM) was 35 µM (inactive). For the same compound, the GI50 (UO-31) was > 100 µM (inactive), the GI50 (LXFL 529) was > 100 µM (inactive) and the GI50 (M19-MEL) was > 100 µM (inactive). For the same compound, the GI50 (DMS-114) was > 100 µM (inactive) and the GI50 (Malme-3M) was > 100 µM (inactive).
For `C=CCn1c2ccccc2c2c(C)c3cnccc3c(C)c21`, the GI50 (SNB-75) was 13.2 µM (inactive), the GI50 (OVCAR-4) was 8.97 µM (inactive) and the GI50 (NCI-H23) was 6.95 µM (inactive). For the same compound, the GI50 (SF-539) was 10.7 µM (inactive), the GI50 (OVCAR-3) was 11.1 µM (inactive) and the GI50 (SNB-19) was 12.9 µM (inactive). The GI50 (HCC 2998) was 20.4 µM (inactive), the GI50 (XF498) was 12.4 µM (inactive) and the GI50 (SK-MEL-28) was 14.8 µM (inactive). For the same compound, the GI50 (SK-MEL-2) was 15.8 µM (inactive), the GI50 (HOP-92) was 1.92 µM (inactive) and the GI50 (COLO 205) was 6.4 µM (inactive). The GI50 (SNB-78) was 22.3 µM (inactive), the GI50 (OVCAR-5) was 6.38 µM (inactive) and the GI50 (MCF7) was 5.52 µM (inactive). The GI50 (KM-20L2) was 6.75 µM (inactive), the GI50 (A549) was 9.77 µM (inactive) and the GI50 (K562) was 5.6 µM (inactive). For the same compound, the GI50 (IGROV-1) was 8.75 µM (inactive), the GI50 (U-251) was 11.2 µM (inactive) and the GI50 (UACC-62) was 9.35 µM (inactive). For the same compound, the GI50 (MOLT-4) was 2.95 µM (inactive), the GI50 (NCI-H460) was 4.47 µM (inactive) and the GI50 (NCI-H226) was 5.16 µM (inactive). For the same compound, the GI50 (RPMI-8226) was 3.61 µM (inactive), the GI50 (HL-60) was 3.17 µM (inactive) and the GI50 (DMS-273) was 6.92 µM (inactive). The GI50 (UACC-257) was 7.23 µM (inactive), the GI50 (SW-620) was 6.61 µM (inactive) and the GI50 (SF-268) was 7.98 µM (inactive). The GI50 (SN12C) was 9.1 µM (inactive), the GI50 (EKVX) was 12.1 µM (inactive) and the GI50 (HOP-62) was 9.98 µM (inactive). The GI50 (SF-295) was 9.86 µM (inactive), the GI50 (KM12) was 4.38 µM (inactive) and the GI50 (CAKI-1) was 2.06 µM (inactive). For the same compound, the GI50 (HCT-15) was 6.92 µM, the GI50 (DLD-1) was 7.08 µM (inactive) and the GI50 (HCT-116) was 4.48 µM (inactive). The GI50 (SK-OV-3) was 5.9 µM (inactive), the GI50 (LOX IMVI) was 6.82 µM (inactive) and the GI50 (OVCAR-8) was 5.53 µM (inactive). For the same compound, the GI50 (HOP-18) was > 125 µM (inactive), the GI50 (SK-MEL-5) was 6.82 µM (inactive) and the GI50 (A498) was 6.34 µM (inactive). The GI50 (NCI-H522) was 5.52 µM (inactive), the GI50 (HT-29) was 8.93 µM (inactive) and the GI50 (RXF 393) was 4.27 µM (inactive). For the same compound, the GI50 (CCRF-CEM) was 4.12 µM (inactive), the GI50 (UO-31) was 4.39 µM (inactive) and the GI50 (M19-MEL) was 9.23 µM (inactive). The GI50 (Malme-3M) was 13.8 µM (inactive) and the GI50 (NCI/ADR-RES) was 4.91 µM (inactive).
